Test results published in article PMC3362543 (2012).

The compounds below were run on poly(U)•poly(A)*poly(U) (RNA, polymer) U/A/U (assay: UV melting at 260 nm). Details: 35 mM Na+ (25 mM NaCl, 10 mM sodium cacodylate), 0.1 mM Na2EDTA, pH 7.0, D/P 0.6, triplex 30 µM (compound 18 µM), third-strand transition, per base.
With COc1ccc2cc3[n+](cc2c1OC)CCc1cc2c(cc1-3)OCO2 the “ΔTm' (3→2)” value was 17.5 °C.
In the case of COc1ccc2cc3[n+](cc2c1OCCCCCCN)CCc1cc2c(cc1-3)OCO2, the “ΔTm' (3→2)” value is reported as 20.5 °C.
With COc1ccc2cc3[n+](cc2c1OCCCN)CCc1cc2c(cc1-3)OCO2 the “ΔTm' (3→2)” value was 18.1 °C.

The compounds below were run on poly(U)•poly(A)*poly(U) (RNA, polymer) U/A/U (assay: ITC, single set of sites). Details: 35 mM Na+ (25 mM NaCl, 10 mM sodium cacodylate), 0.1 mM Na2EDTA, pH 7.0, 25 °C, triplex 25 µM, per base.
For COc1ccc2cc3[n+](cc2c1OC)CCc1cc2c(cc1-3)OCO2, the Ka was 1.5±0.04 × 10^5 M^-1.
In the case of COc1ccc2cc3[n+](cc2c1OCCCCCCN)CCc1cc2c(cc1-3)OCO2, the Ka is reported as 23±0.10 × 10^5 M^-1.
In the case of COc1ccc2cc3[n+](cc2c1OCCCN)CCc1cc2c(cc1-3)OCO2, the Ka is reported as 9.73±0.09 × 10^5 M^-1.

The compounds below were run on poly(U)•poly(A)*poly(U) (RNA, polymer) U/A/U (assay: absorbance titration, Scatchard, McGhee-von Hippel non-cooperative). Details: 35 mM Na+ (25 mM NaCl, 10 mM sodium cacodylate), 0.1 mM Na2EDTA, pH 7.0, 25 °C, intrinsic constant per isolated site, per base.
COc1ccc2cc3[n+](cc2c1OC)CCc1cc2c(cc1-3)OCO2 was tested, and the Ki was 2.88±0.02 × 10^5 M^-1.
In the case of COc1ccc2cc3[n+](cc2c1OCCCCCCN)CCc1cc2c(cc1-3)OCO2, the Ki is reported as 39.87±0.41 × 10^5 M^-1.
With COc1ccc2cc3[n+](cc2c1OCCCN)CCc1cc2c(cc1-3)OCO2 the Ki was 8.65±0.34 × 10^5 M^-1.

What follows are compounds tested on poly(U)•poly(A)*poly(U) (RNA, polymer) U/A/U (assay: fluorescence titration, Scatchard, McGhee-von Hippel non-cooperative). Details: 35 mM Na+ (25 mM NaCl, 10 mM sodium cacodylate), 0.1 mM Na2EDTA, pH 7.0, 25 °C, intrinsic constant per isolated site, per base.
With COc1ccc2cc3[n+](cc2c1OC)CCc1cc2c(cc1-3)OCO2 the Ki was 3.9±0.05 × 10^5 M^-1.
In the case of COc1ccc2cc3[n+](cc2c1OCCCCCCN)CCc1cc2c(cc1-3)OCO2, the Ki is reported as 47.0±0.56 × 10^5 M^-1.
With COc1ccc2cc3[n+](cc2c1OCCCN)CCc1cc2c(cc1-3)OCO2 the Ki was 9.5±0.10 × 10^5 M^-1.
